According to patent US8389573B2, “Glycyrrhetinic acid derivatives” (Wellington Laboratories Inc., priority 2006, dated 2013):

What was measured:
[1] = molecular target: T1, PPARγ-coactivator interactions (Homo sapiens, UniProt P37231); experiment: Mammalian two-hybrid assay (VP-PPARγ, GAL4-coactivator) in SW480 cells; type: cell-based
T1 construct: expressed in transfected cells; host or cells: SW480 cells, transient transfection (LipofectAMINE)
T1 sequence (P37231 238-503 limits assumed): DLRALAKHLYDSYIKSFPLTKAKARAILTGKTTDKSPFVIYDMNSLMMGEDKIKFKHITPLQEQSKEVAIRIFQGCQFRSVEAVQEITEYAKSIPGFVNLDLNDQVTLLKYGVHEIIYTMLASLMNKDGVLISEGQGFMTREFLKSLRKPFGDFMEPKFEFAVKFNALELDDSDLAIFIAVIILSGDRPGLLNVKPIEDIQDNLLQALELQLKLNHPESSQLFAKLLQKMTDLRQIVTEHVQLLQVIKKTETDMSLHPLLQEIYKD
Description: SW480 and HT29 cell lines were plated in 12-well plates at 1×10^5 cells/well in DMEM/F-12 media supplemented with 2.5% charcoal-stripped fetal bovine serum. After growth for 16 h, various amounts of DNA, i.e. Gal4Luc (0.4 μg), β-gal (0.04 μg), VP-PPARγ (0.04 μg), pMSRC1 (0.04 μg), pMSRC2 (0.04 μg), pMSRC3 (0.04 μg), pMPGC-1 (0.04 μg), pMDRIP205 (0.04 μg), and pMCARM-1 (0.04 μg) were transfected by LipofectAMINE (Invitrogen) according to the manufacturer's protocol. After 5 h of transfection, the transfection mix was replaced with complete media containing either vehicle (DMSO) or the indicated ligand for 20-22 h. Cells were then lysed with […] of 1× reporter lysis buffer, and 30 μl of cell extract was used for luciferase and β-galactosidase assays. Lumicount was used to quantitate luciferase and β-galactosidase activities, and the luciferase activities were normalized to β-galactosidase activity.

[2] = test system: PPARγ; experiment: PPARγ-GAL4/pGAL4 transfection and luciferase assay in SW480 cells; type: cell-based
Description: The Gal4 reporter containing 5× Gal4 response elements (pGal4) was kindly provided by Dr. Marty Mayo (University of North Carolina, Chapel Hill, N.C.). Gal4 DBD-PPARγ construct (gPPARγ) was a gift of Dr. Jennifer L. Oberfield (GlaxoSmithKline Research and Development, Research Triangle Park, N.C.). PPRE3-luc construct contains three tandem PPREs with a minimal TATA sequence in pGL2.
Colon Cancer cell lines SW480 and HT29 (1×10^5 cells/well) were plated in 12-well plates in DMEM/Ham's F-12 media supplemented with 2.5% charcoal-stripped FBS. After 16 h, various amounts of DNA [i.e., Gal4Luc (0.4 μg), β-Gal (0.04 μg), Gal4PPAR and PPRE3-Luc (0.04 μg)] were transfected using LipofectAMINE™ reagent (Invitrogen) following the manufacturer's protocol. Five hours after transfection, the transfection mix was replaced with complete media containing either vehicle (DMSO) or the indicated ligand for 20 to 22 h. Cells were then lysed with 100 μl of 1× reporter lysis buffer, and 30 μl of cell extract was used for luciferase and […] assays. A LumiCount™ luminometer (PerkinElmer Life and Analytical Sciences) was used to quantitate luciferase and β-Gal activities, and the luciferase activities were normalized to β-Gal activity. Results are expressed as means±S.E. for at least three replicate determinations for each treatment group

[3] = test system: LNCaP cells; experiment: Western blot analysis and DNA fragmentation assay in LNCaP cells; type: cell-based, human
Description: Cell Proliferation and DNA Fragmentation Assays: LNCaP prostate cancer cells (2×10^4 per well) were added to 12-well plates and allowed to attach for 24 hr. The medium was then changed to DMEM/Ham's F-12 media containing 2.5% charcoal-stripped FBS, and either vehicle (DMSO) or the indicated C-DIMs were added. Fresh medium and indicated compounds were added every 48 hr, and cells were then trypsinized and counted after 2, 4, and 6 days using a Coulter Z1 cell counter (Beckman Coulter, Fullerton, Calif.). Each experiment was done in triplicate, and results are expressed as means±S.E. for each set of three experiments. The DNA fragmentation assay was performed using a BioVision Apoptotic DNA ladder extraction kit (BioVision, Mountain View, Calif.) according to the manufacturer's protocol.
Western Blot Analysis: Cells were seeded in DMEM:Ham's F-12 media containing 2.5% charcoal-stripped FBS for 24 hr and then treated with either the vehicle (DMSO) or the indicated compounds. Cells were collected by scraping in 150 μl high salt lysis buffer (50 mM HEPES, 0.5 M NaCl, 1.5 mM MgCl2, 1 mM EGTA, 10% (v/v) glycerol, 1% (v/v) Triton-X-100 and 5 μL/ml of Protease Inhibitor Cocktail (Sigma). The lysates were incubated on ice for 1 hr with intermittent vortexing followed by centrifugation at 20,000 g for 10 min at 4° C. Before electrophoresis, samples were boiled for 3 min at 100° C.; the amount of protein was determined and 60 μg protein applied per lane. Samples were subjected to SDS-PAGE on 10% gel at 120 V for 3 to 4 hr. Proteins were transferred on to polyvinylidene difluoride membrane (PVDF; Bio-Rad, Hercules, Calif.) at 0.9 amp for 90 min at 4° C. in 1× transfer buffer (48 mM Tris-HCl, 39 mM glycine, and 0.025% SDS). The membranes were blocked for 30 min with 5% TBST-Blotto (10 mM Tris-HCl, 150 mM NaCl (pH 8.0), 0.05% Triton X-100 and 5% non-fat dry milk) and incubated in fresh 5% TBST-Blotto with primary antibody overnight with gentle shaking at 4° C. After washing with TBST for 10 min, the PVDF membrane was incubated with secondary antibody (1:5000) in 5% TBST-Blotto for 2-3 hr. The membrane was washed with TBST for 10 min and incubated with 10 ml of chemiluminescence substrate (PerkinElmer Life Sciences) for 1.0 min and exposed to ImageTeK-H medical imaging film (Eastman American X-ray Supply, Inc.).

- PPARγ interaction with coactivators PGC-1 and SRC-1 [1]: induced transactivation
- ligand-induced interactions of SRC-2, SRC-3, CARM1, TRAP220 and SMRT with PPARγ [1]: not observed
Compound: COC(=O)[C@@]1(C)CC[C@]2(C)CC[C@]3(C)C(=CC(=O)[C@@H]4[C@@]5(C)C=C(C#N)C(=O)C(C)(C)[C@@H]5CC[C@]43C)[C@@H]2C1 [β-CDODA-Me, Methyl 2-cyano-3,11-dioxo-18β-oleana-1,12-dien-30-oate]
- induced luciferase activity after cotreatment with PPARγ antagonist T007 ([2]; 1.0, 2.5, 5.0 β-CDODA-Me or 10, 20, 30 μM β-CDODA, 10 μM T007): inhibited
- maximal induction of luciferase activity (PPARγ activation) ([2]; 1-5 μM): 18 Fold
- concentrations that decrease AR and PSA expression [3]: 1 to 2.5 µM
- degradation of cyclin D1 after cotreatment with MG132 [3]: inhibited
- downregulation of AR, PSA and FKBP51 proteins after cotreatment with T007 or MG132 [3]: not affected
- induced proapoptotic responses after cotreatment with T007 [3]: not inhibited
- JNK (p-JNK), PI3K (p-Akt) and MAPK (p-Erk) pathways ([3]; 2.5 μM): induces activation
- decreased expression of AR, PSA and FKBP51 with kinase inhibitors ([3]; 2.5 μM): unaffected
- induction of EGR-1, ATF-3 and NAG-1 ([3]; 2.5 μM): time-dependent induction
- p-Erk activation ([3]; 2.5 μM): remained elevated for 24 hr
- time of maximal activation of JNK ([3]; 2.5 μM): 8 h
- time of maximal activation of PI3K ([3]; 2.5 μM): 8 to 12 h
- AR, PSA and FKBP51 expression ([3]; 1-5 μM, presence or absence of 10 nM DHT): concentration-dependent decrease
- NAG-1 and ATF-3 proapoptotic proteins ([3]; 24 hr, 1-5 μM): induced
- cyclin D1 proteins and Rb phosphorylation ([3]; 24 hr, 1-5 μM): decrease
- p27 and p21 proteins ([3]; 24 hr, 1-5 μM): concentration-dependent induction
- proapoptotic responses accompanying NAG-1/ATF-3 induction ([3]; 24 hr, 1-5 μM): caspase-dependent PARP cleavage, DNA fragmentation, and decreased bcl2 expression
- time course of PARP cleavage, AR and Sp1 ([3]; up to 24 hr): time-dependent induction of PARP cleavage and a decrease of both AR and Sp1
